{
  "source": "ChEMBL document CHEMBL1154227",
  "about": "“Guttiferones O and P, prenylated benzophenone MAPKAPK-2 inhibitors from Garcinia solomonensis” (J Nat Prod, 2009)",
  "target": "MAP kinase-activated protein kinase 2 (Homo sapiens, UniProt P49137)",
  "sequence (P49137 whole entry)": "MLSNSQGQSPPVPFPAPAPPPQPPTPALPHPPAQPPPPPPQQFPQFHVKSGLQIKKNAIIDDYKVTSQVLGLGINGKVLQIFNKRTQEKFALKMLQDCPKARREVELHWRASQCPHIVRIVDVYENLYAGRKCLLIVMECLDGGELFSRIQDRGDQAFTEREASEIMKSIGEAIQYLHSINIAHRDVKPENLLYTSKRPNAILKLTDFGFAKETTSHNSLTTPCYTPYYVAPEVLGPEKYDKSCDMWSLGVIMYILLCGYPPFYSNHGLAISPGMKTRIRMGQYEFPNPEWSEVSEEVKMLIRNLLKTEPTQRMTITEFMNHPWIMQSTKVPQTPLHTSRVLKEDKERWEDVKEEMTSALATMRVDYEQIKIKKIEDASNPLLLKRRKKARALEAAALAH",
  "assay": "Inhibition of GST-tagged MAPKAPK2 assessed as [33P] incorporation after 40 mins by scintillation proximity assay",
  "note": "pIC50: −log10 of the molar value.",
  "data": [
    {"compound": "CC(C)=CCC/C(C)=C/C[C@]12C[C@@H](CC=C(C)C)[C@](C)(CCC=C(C)C)[C@](CC=C(C)C)(C(=O)C(C(=O)c3ccc(O)c(O)c3)=C1O)C2=O", "note": "[GUTTIFERONE P]", "values": [
      {"measurement": "pIC50", "result": 4.66}
    ]},
    {"compound": "CC(C)=CCC/C(C)=C/C[C@]12C[C@@H](CC=C(C)C)C(C)(C)[C@](C/C=C(\\C)CCC=C(C)C)(C(=O)C(C(=O)c3ccc(O)c(O)c3)=C1O)C2=O", "note": "[GUTTIFERONE O]", "values": [
      {"measurement": "pIC50", "result": 4.66}
    ]}
  ]
}
